Experimental data taken from PubChem BioAssay AID264 (DTP/NCI, 2004).
“And” between values parts separate entries of the source, which are not always exact repeats. Identical values can stand only once. Records with an inconclusive call do not appear.

Test system: nude mice, LX-1 lung xenograft intrarenal, tumor weight T/C
Experiment: NCI In Vivo Anticancer Drug Screen. Data for tumor model Human Lung LX-1 Xenograft (intrarenal inoculation) in NU/NU Swiss (nude) mice
Settings: endpoint: mean tumor weight change, higher = larger tumour
Summary of the method: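 In vivo, transplantable tumor; compound vs vehicle arms; tumor size measured; value = T/C.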

[1] = dose: 25.0 mg/kg/injection, schedule: Q01DX010 (sc), vehicle: Klucel (hydroxypropylcellulose) (HPC)
[2] = dose: 50.0 mg/kg/injection, schedule: Q04DX003 (sc), vehicle: suspension in saline
[3] = dose: 150.0 mg/kg/injection, schedule: Q04DX003 (sc), vehicle: saline
[4] = dose: 300.0 mg/kg/injection, schedule: Q04DX003 (sc), vehicle: suspension in saline
[5] = dose: 600.0 mg/kg/injection, schedule: Q04DX003 (sc), vehicle: suspension in saline
[6] = dose: 1200.0 mg/kg/injection, schedule: Q04DX003 (sc), vehicle: suspension in saline
[7] = dose: 300.0 mg/kg/injection, schedule: Q04DX003 (sc), vehicle: saline with Tween-80
[8] = dose: 600.0 mg/kg/injection, schedule: Q04DX003 (sc), vehicle: saline with Tween-80
[9] = dose: 1200.0 mg/kg/injection, schedule: Q04DX003 (sc), vehicle: saline with Tween-80
[10] = dose: 50.0 mg/kg/injection, schedule: Q01DX010 (sc), vehicle: Klucel (hydroxypropylcellulose) (HPC)
[11] = dose: 100.0 mg/kg/injection, schedule: Q01DX010 (sc), vehicle: Klucel (hydroxypropylcellulose) (HPC)
[12] = dose: 200.0 mg/kg/injection, schedule: Q01DX010 (sc), vehicle: Klucel (hydroxypropylcellulose) (HPC)

C=C1C(=O)OCC2C(C(=O)O)=CC3C(C)C(C)=CC123 (stereo not drawn)
T/C (dose: 3.13 mg/kg/injection, schedule: Q01DX010 (sc), vehicle: Klucel (hydroxypropylcellulose) (HPC)): 56 % of control
T/C (dose: 6.25 mg/kg/injection, schedule: Q01DX010 (sc), vehicle: Klucel (hydroxypropylcellulose) (HPC)): 109 % of control
T/C (dose: 12.5 mg/kg/injection, schedule: Q01DX010 (sc), vehicle: Klucel (hydroxypropylcellulose) (HPC)): 78 % of control
T/C [1]: 165 % of control

NC(=O)c1ncn2c(=O)n(CCCl)nnc12
T/C (dose: 12.5 mg/kg/injection, schedule: Q04DX003 (sc), vehicle: saline): 56 % of control and 64 % of control
T/C (dose: 12.5 mg/kg/injection, schedule: Q04DX003 (sc), vehicle: suspension in saline): 80 % of control
T/C (dose: 25.0 mg/kg/injection, schedule: Q04DX003 (sc), vehicle: saline): 23 % of control and 40 % of control
T/C (dose: 25.0 mg/kg/injection, schedule: Q04DX003 (sc), vehicle: suspension in saline): 49 % of control
T/C (dose: 50.0 mg/kg/injection, schedule: Q04DX003 (sc), vehicle: saline): 3 % of control and 19 % of control
T/C [2]: 18 % of control
T/C (dose: 100.0 mg/kg/injection, schedule: Q04DX003 (sc), vehicle: saline): 7 % of control

C=C1C(C)C2C(Cc3ccccc3)NC(=O)C23C(OC(C)=O)C=CC(C)(O)C(=O)C(C)C/C=C/C3C1O (stereo not drawn)
T/C (dose: 7.5 mg/kg/injection, schedule: Q04DX003 (sc), vehicle: Klucel (hydroxypropylcellulose) (HPC)): 54 % of control
T/C (dose: 15.0 mg/kg/injection, schedule: Q04DX003 (sc), vehicle: Klucel (hydroxypropylcellulose) (HPC)): 75 % of control

CCCCCCCCCCCCCCCC(=O)Nc1ccn(C2OC(CO)C(O)C2O)c(=O)n1 (stereo not drawn)
T/C (dose: 150.0 mg/kg/injection, schedule: Q04DX003 (sc), vehicle: water): 32 % of control and 33 % of control

O=Cc1ccc([N+](=O)[O-])s1
T/C (dose: 25.0 mg/kg/injection, schedule: Q01DX010 (sc), vehicle: saline with Tween-80): 94 % of control
T/C (dose: 50.0 mg/kg/injection, schedule: Q01DX010 (sc), vehicle: saline with Tween-80): 105 % of control
T/C (dose: 100.0 mg/kg/injection, schedule: Q01DX010 (sc), vehicle: saline with Tween-80): 81 % of control
T/C (dose: 200.0 mg/kg/injection, schedule: Q01DX010 (sc), vehicle: saline with Tween-80): 30 % of control

C=C1C(=O)OCC1C(=O)O (stereo not drawn)
T/C [2]: 123 % of control
T/C (dose: 100.0 mg/kg/injection, schedule: Q04DX003 (sc), vehicle: suspension in saline): 95 % of control
T/C (dose: 200.0 mg/kg/injection, schedule: Q04DX003 (sc), vehicle: suspension in saline): 99 % of control

N=c1ccn2c(n1)OC1C(O)C(CO)OC12 (stereo not drawn)
T/C (dose: 37.5 mg/kg/injection, schedule: Q04DX003 (sc), vehicle: saline): 91 % of control
T/C (dose: 75.0 mg/kg/injection, schedule: Q04DX003 (sc), vehicle: saline): 95 % of control
T/C [3]: 121 % of control
T/C (dose: 300.0 mg/kg/injection, schedule: Q04DX003 (sc), vehicle: saline): 77 % of control
T/C [4]: 176 % of control
T/C [5]: 231 % of control
T/C (dose: 800.0 mg/kg/injection, schedule: Q04DX003 (sc), vehicle: saline): 24 % of control and 48 % of control
T/C [6]: 41 % of control
T/C (dose: 1600.0 mg/kg/injection, schedule: Q04DX003 (sc), vehicle: saline): 18 % of control and 31 % of control
T/C (dose: 2400.0 mg/kg/injection, schedule: Q04DX003 (sc), vehicle: suspension in saline): 36 % of control
T/C (dose: 3200.0 mg/kg/injection, schedule: Q04DX003 (sc), vehicle: saline): 6 % of control and 18 % of control

COc1cccc2c1C(=O)c1c(O)c3c(c(O)c1C2=O)C[C@@](O)(/C(C)=N/NC(=O)c1ccc(Cl)cc1)C[C@@H]3OC1CC(N)C(O)C(C)O1 (stereo partly drawn)
T/C (dose: 4.0 mg/kg/injection, schedule: Q01DX010 (sc), vehicle: water): 156 % of control
T/C (dose: 6.0 mg/kg/injection, schedule: Q04DX003 (sc), vehicle: water): 64 % of control
T/C (dose: 8.0 mg/kg/injection, schedule: Q01DX010 (sc), vehicle: water): 42 % of control
T/C (dose: 16.0 mg/kg/injection, schedule: Q01DX010 (sc), vehicle: water): 43 % of control
T/C (dose: 96.0 mg/kg/injection, schedule: Q04DX003 (sc), vehicle: water): 20 % of control and 33 % of control

Nc1nc2c(ncn2C2OC(CO)C(O)C2O)c(=O)[nH]1 (stereo not drawn)
T/C [7]: 50 % of control
T/C [8]: 54 % of control
T/C [9]: 42 % of control
T/C (dose: 2400.0 mg/kg/injection, schedule: Q04DX003 (sc), vehicle: saline with Tween-80): 46 % of control

Nc1nc(=S)c2ncn(C3CC(O)C(CO)O3)c2[nH]1 (stereo not drawn)
T/C (dose: 0.31 mg/kg/injection, schedule: Q01DX010 (sc), vehicle: saline with Tween-80): 108 % of control
T/C (dose: 0.63 mg/kg/injection, schedule: Q01DX010 (sc), vehicle: saline with Tween-80): 66 % of control
T/C (dose: 1.25 mg/kg/injection, schedule: Q01DX010 (sc), vehicle: saline with Tween-80): 85 % of control
T/C (dose: 2.5 mg/kg/injection, schedule: Q01DX010 (sc), vehicle: saline with Tween-80): 83 % of control

O=C(Nc1nncs1)c1cccs1
T/C [7]: 119 % of control
T/C [8]: 85 % of control
T/C [9]: 120 % of control

Cc1ccc(C(=O)[O][Hg][CH2]C2COC([CH2][Hg][O]C(=O)c3ccc(C)cc3)CO2)cc1 (stereo not drawn)
T/C [1]: 89 % of control
T/C [10]: 58 % of control
T/C [11]: 112 % of control
T/C [12]: 63 % of control

CN=C(N)N/N=C(\c1ccccc1)c1ccc(Br)cc1
T/C (dose: 12.5 mg/kg/injection, schedule: Q04DX003 (sc), vehicle: saline with Tween-80): 88 % of control
T/C (dose: 25.0 mg/kg/injection, schedule: Q04DX003 (sc), vehicle: saline with Tween-80): 122 % of control
T/C (dose: 50.0 mg/kg/injection, schedule: Q04DX003 (sc), vehicle: saline with Tween-80): 103 % of control

NC(=S)c1ncn(C2OC(CO)C(O)C2O)c1N (stereo not drawn)
T/C (dose: 150.0 mg/kg/injection, schedule: Q04DX003 (sc), vehicle: suspension in saline): 87 % of control
T/C [4]: 102 % of control
T/C [5]: 98 % of control
T/C [6]: 103 % of control

CCn1cnc2c(=S)nc[nH]c21
T/C [3]: 159 % of control
T/C (dose: 600.0 mg/kg/injection, schedule: Q04DX003 (sc), vehicle: saline): 224 % of control

OCCOCCN1CCN(CCCN2c3ccccc3Sc3ccc(C(F)(F)F)cc32)CC1
T/C (dose: 3.0 mg/kg/injection, schedule: Q01DX010 (sc), vehicle: saline): 81 % of control
T/C (dose: 12.0 mg/kg/injection, schedule: Q01DX010 (sc), vehicle: saline): 92 % of control and 111 % of control
T/C (dose: 24.0 mg/kg/injection, schedule: Q01DX010 (sc), vehicle: saline): 52 % of control

COc1cc2c(c(OC)c1OC)-c1c(cc3c(c1OC)OCO3)CC(C)C(C)(O)C2OC(=O)c1ccccc1 (stereo not drawn)
T/C (dose: 300.0 mg/kg/injection, schedule: Q04DX003 (sc), vehicle: saline + alcohol): 65 % of control
T/C (dose: 600.0 mg/kg/injection, schedule: Q04DX003 (sc), vehicle: saline + alcohol): 107 % of control
T/C (dose: 1200.0 mg/kg/injection, schedule: Q04DX003 (sc), vehicle: saline + alcohol): 108 % of control
T/C (dose: 2400.0 mg/kg/injection, schedule: Q04DX003 (sc), vehicle: saline + alcohol): 77 % of control

C[C@]12CCC(=O)C(O)=C1CC[C@@H]1[C@@H]2CC[C@]2(C)C(=O)CC[C@@H]12
T/C [10]: 43 % of control
T/C [11]: 30 % of control
T/C [12]: 47 % of control
T/C (dose: 400.0 mg/kg/injection, schedule: Q01DX010 (sc), vehicle: Klucel (hydroxypropylcellulose) (HPC)): 48 % of control

C[C@@](O)(/C=C/[C@H]1CC=CC(=O)O1)[C@@H](C[C@@H](O)\C=C/C=C\C=C\CO)OP(=O)(O)O
T/C (dose: 7.5 mg/kg/injection, schedule: Q04DX003 (sc), vehicle: other): 160 % of control
T/C (dose: 15.0 mg/kg/injection, schedule: Q04DX003 (sc), vehicle: other): 168 % of control

CCCCCCCCCCCCCCCCCC(=O)Nc1ccn(C2OC(CO)C(O)C2O)c(=O)n1 (stereo not drawn)
T/C (dose: 75.0 mg/kg/injection, schedule: Q04DX003 (sc), vehicle: saline with Tween-80): 115 % of control
T/C (dose: 150.0 mg/kg/injection, schedule: Q04DX003 (sc), vehicle: saline with Tween-80): 41 % of control
T/C [7]: 38 % of control
T/C [8]: 30 % of control
